Test results from the NIST ThermoML archive (doi:10.1021/je060271a).
“And” between values parts separate entries of the source, which are not always exact repeats. Equal values may be shown once. ± gives the expanded uncertainty stated by the source.

Conditions: 343.15 K, Liquid, Vibrating tube method

CCCCCCC(=O)OCC(COC(=O)CCCCCC)(COC(=O)CCCCCC)COC(=O)CCCCCC [pentaerythritol tetraheptanoate]
Conditions	mass density
13341 kPa	950.4 ± 1.2 kg/m3
13372 kPa	950.4 ± 1.2 kg/m3
13408 kPa	950.3 ± 1.2 kg/m3
13431 kPa	950.4 ± 1.2 kg/m3
13453 kPa	950.5 ± 1.2 kg/m3
13478 kPa	950.4 ± 1.2 kg/m3
13499 kPa	950.4 ± 1.2 kg/m3
13521 kPa	950.4 ± 1.2 kg/m3
13546 kPa	950.5 ± 1.2 kg/m3
13567 kPa	950.5 ± 1.2 kg/m3
13589 kPa	950.5 ± 1.2 kg/m3
13615 kPa	950.5 ± 1.2 kg/m3
13637 kPa	950.5 ± 1.2 kg/m3
13658 kPa	950.6 ± 1.2 kg/m3
13661 kPa	950.5 ± 1.2 kg/m3
13675 kPa	950.6 ± 1.2 kg/m3
13680 kPa	950.6 ± 1.2 kg/m3
13707 kPa	950.6 ± 1.2 kg/m3
13729 kPa	950.6 ± 1.2 kg/m3
13751 kPa	950.7 ± 1.2 kg/m3
13779 kPa	950.6 ± 1.2 kg/m3
13801 kPa	950.7 ± 1.2 kg/m3
13824 kPa	950.7 ± 1.2 kg/m3
13831 kPa	950.7 ± 1.2 kg/m3
13845 kPa	950.8 ± 1.2 kg/m3
13850 kPa	950.6 ± 1.2 kg/m3
13858 kPa	950.8 ± 1.2 kg/m3
13872 kPa	950.8 ± 1.2 kg/m3
13895 kPa	950.8 ± 1.2 kg/m3
13922 kPa	950.8 ± 1.2 kg/m3
13944 kPa	950.7 ± 1.2 kg/m3
13968 kPa	950.8 ± 1.2 kg/m3
13995 kPa	950.8 ± 1.2 kg/m3
14018 kPa	950.9 ± 1.2 kg/m3
14041 kPa	950.8 ± 1.2 kg/m3
14069 kPa	950.8 ± 1.2 kg/m3
14093 kPa	950.9 ± 1.2 kg/m3
14116 kPa	950.9 ± 1.2 kg/m3
14140 kPa	950.9 ± 1.2 kg/m3
14168 kPa	950.9 ± 1.2 kg/m3
14191 kPa	950.9 ± 1.2 kg/m3
14215 kPa	951 ± 1.2 kg/m3
14244 kPa	951 ± 1.2 kg/m3
14267 kPa	950.8 ± 1.2 kg/m3
14296 kPa	951 ± 1.2 kg/m3
14320 kPa	951.1 ± 1.2 kg/m3
14344 kPa	951.1 ± 1.2 kg/m3
14368 kPa	951 ± 1.2 kg/m3
14397 kPa	951.1 ± 1.2 kg/m3
14398 kPa	951.2 ± 1.2 kg/m3
14410 kPa	951.1 ± 1.2 kg/m3
14423 kPa	951 ± 1.2 kg/m3
14427 kPa	951.1 ± 1.2 kg/m3
14440 kPa	951.1 ± 1.2 kg/m3
14447 kPa	951.2 ± 1.2 kg/m3
14454 kPa	951 ± 1.2 kg/m3
14468 kPa	951.1 ± 1.2 kg/m3
14477 kPa	951.2 ± 1.2 kg/m3
14482 kPa	951.2 ± 1.2 kg/m3
14495 kPa	951 ± 1.2 kg/m3
14502 kPa	951.1 ± 1.2 kg/m3
14512 kPa	951.2 ± 1.2 kg/m3
14526 kPa	951.1 ± 1.2 kg/m3
14556 kPa	951 ± 1.2 kg/m3
14581 kPa	951.2 ± 1.2 kg/m3
14606 kPa	951.1 ± 1.2 kg/m3
14632 kPa	951.3 ± 1.2 kg/m3
14662 kPa	951.1 ± 1.2 kg/m3
14688 kPa	951.2 ± 1.2 kg/m3
14714 kPa	951.3 ± 1.2 kg/m3
14744 kPa	951.3 ± 1.2 kg/m3
14771 kPa	951.3 ± 1.2 kg/m3
14797 kPa	951.4 ± 1.2 kg/m3
14823 kPa	951.4 ± 1.2 kg/m3
14855 kPa	951.2 ± 1.2 kg/m3
14880 kPa	951.4 ± 1.2 kg/m3
14907 kPa	951.3 ± 1.2 kg/m3
14939 kPa	951.4 ± 1.2 kg/m3
14965 kPa	951.4 ± 1.2 kg/m3
14992 kPa	951.5 ± 1.2 kg/m3
15024 kPa	951.5 ± 1.2 kg/m3
15051 kPa	951.6 ± 1.2 kg/m3
15078 kPa	951.7 ± 1.2 kg/m3
15112 kPa	951.6 ± 1.2 kg/m3
15135 kPa	951.6 ± 1.2 kg/m3
15168 kPa	951.5 ± 1.2 kg/m3
15196 kPa	951.6 ± 1.2 kg/m3
15230 kPa	951.7 ± 1.2 kg/m3
15257 kPa	951.6 ± 1.2 kg/m3
15284 kPa	951.8 ± 1.2 kg/m3
15310 kPa	951.7 ± 1.2 kg/m3
15337 kPa	951.7 ± 1.2 kg/m3
15354 kPa	951.7 ± 1.2 kg/m3
15378 kPa	951.7 ± 1.2 kg/m3
15402 kPa	951.8 ± 1.2 kg/m3
15423 kPa	951.8 ± 1.2 kg/m3
15449 kPa	951.7 ± 1.2 kg/m3
15466 kPa	951.8 ± 1.2 kg/m3
15491 kPa	951.8 ± 1.2 kg/m3
15511 kPa	951.8 ± 1.2 kg/m3
15531 kPa	951.9 ± 1.2 kg/m3
15556 kPa	951.9 ± 1.2 kg/m3
15577 kPa	952 ± 1.2 kg/m3
15598 kPa	951.9 ± 1.2 kg/m3
15623 kPa	952.1 ± 1.2 kg/m3
15643 kPa	951.9 ± 1.2 kg/m3
15664 kPa	951.9 ± 1.2 kg/m3
15689 kPa	951.9 ± 1.2 kg/m3
15710 kPa	951.9 ± 1.2 kg/m3
15732 kPa	951.9 ± 1.2 kg/m3
15753 kPa	952.1 ± 1.2 kg/m3
15778 kPa	952.1 ± 1.2 kg/m3
15800 kPa	952 ± 1.2 kg/m3
15817 kPa	952.1 ± 1.2 kg/m3
15847 kPa	952.1 ± 1.2 kg/m3
15868 kPa	952.2 ± 1.2 kg/m3
15890 kPa	952.1 ± 1.2 kg/m3
15916 kPa	952.2 ± 1.2 kg/m3
15938 kPa	952.1 ± 1.2 kg/m3
15964 kPa	952.1 ± 1.2 kg/m3
15985 kPa	952.1 ± 1.2 kg/m3
16008 kPa	952.2 ± 1.2 kg/m3
16034 kPa	952.2 ± 1.2 kg/m3
16056 kPa	952.2 ± 1.2 kg/m3
16079 kPa	952.2 ± 1.2 kg/m3
16101 kPa	952.2 ± 1.2 kg/m3
16128 kPa	952.2 ± 1.2 kg/m3
16151 kPa	952.3 ± 1.2 kg/m3
16174 kPa	952.3 ± 1.2 kg/m3
16200 kPa	952.4 ± 1.2 kg/m3
16223 kPa	952.3 ± 1.2 kg/m3
16246 kPa	952.4 ± 1.2 kg/m3
16269 kPa	952.4 ± 1.2 kg/m3
16297 kPa	952.4 ± 1.2 kg/m3
16320 kPa	952.5 ± 1.2 kg/m3
16344 kPa	952.5 ± 1.2 kg/m3
16367 kPa	952.5 ± 1.2 kg/m3
16395 kPa	952.6 ± 1.2 kg/m3
16418 kPa	952.5 ± 1.2 kg/m3
16446 kPa	952.4 ± 1.2 kg/m3
16469 kPa	952.5 ± 1.2 kg/m3
16493 kPa	952.7 ± 1.2 kg/m3
16516 kPa	952.5 ± 1.2 kg/m3
16545 kPa	952.7 ± 1.2 kg/m3
16569 kPa	952.6 ± 1.2 kg/m3
16588 kPa	952.6 ± 1.2 kg/m3
16616 kPa	952.6 ± 1.2 kg/m3
16640 kPa	952.6 ± 1.2 kg/m3
16669 kPa	952.7 ± 1.2 kg/m3
16698 kPa	952.5 ± 1.2 kg/m3
16723 kPa	952.7 ± 1.2 kg/m3
16747 kPa	952.8 ± 1.2 kg/m3
16771 kPa	952.8 ± 1.2 kg/m3
16800 kPa	952.8 ± 1.2 kg/m3
16825 kPa	952.8 ± 1.2 kg/m3
16854 kPa	952.8 ± 1.2 kg/m3
16879 kPa	952.8 ± 1.2 kg/m3
16882 kPa	952.8 ± 1.2 kg/m3
16904 kPa	953 ± 1.2 kg/m3
16933 kPa	952.8 ± 1.2 kg/m3
16958 kPa	952.8 ± 1.2 kg/m3
16983 kPa	952.9 ± 1.2 kg/m3
17013 kPa	952.9 ± 1.2 kg/m3
17038 kPa	952.9 ± 1.2 kg/m3
17064 kPa	953.1 ± 1.2 kg/m3
17089 kPa	952.9 ± 1.2 kg/m3
17120 kPa	952.9 ± 1.2 kg/m3
17145 kPa	953 ± 1.2 kg/m3
17176 kPa	952.9 ± 1.2 kg/m3
17202 kPa	952.9 ± 1.2 kg/m3
17228 kPa	952.9 ± 1.2 kg/m3
17254 kPa	953.1 ± 1.2 kg/m3
17285 kPa	953 ± 1.2 kg/m3
17312 kPa	953.1 ± 1.2 kg/m3
17340 kPa	953 ± 1.2 kg/m3
17368 kPa	953 ± 1.2 kg/m3
17394 kPa	953.2 ± 1.2 kg/m3
17426 kPa	953.1 ± 1.2 kg/m3
17453 kPa	953.1 ± 1.2 kg/m3
17463 kPa	953.2 ± 1.2 kg/m3
17480 kPa	953.2 ± 1.2 kg/m3
17483 kPa	953.2 ± 1.2 kg/m3
17507 kPa	953.3 ± 1.2 kg/m3
17512 kPa	953.2 ± 1.2 kg/m3
17528 kPa	953.2 ± 1.2 kg/m3
17538 kPa	953.2 ± 1.2 kg/m3
17548 kPa	953.1 ± 1.2 kg/m3
17566 kPa	953.2 ± 1.2 kg/m3
17572 kPa	953.3 ± 1.2 kg/m3
17598 kPa	953.3 ± 1.2 kg/m3
17625 kPa	953.3 ± 1.2 kg/m3
17652 kPa	953.3 ± 1.2 kg/m3
17686 kPa	953.1 ± 1.2 kg/m3
17709 kPa	953.4 ± 1.2 kg/m3
17742 kPa	953.3 ± 1.2 kg/m3
17770 kPa	953.4 ± 1.2 kg/m3
17798 kPa	953.4 ± 1.2 kg/m3
17831 kPa	953.5 ± 1.2 kg/m3
17859 kPa	953.5 ± 1.2 kg/m3
17882 kPa	953.5 ± 1.2 kg/m3
17887 kPa	953.4 ± 1.2 kg/m3
17921 kPa	953.4 ± 1.2 kg/m3
17949 kPa	953.5 ± 1.2 kg/m3 and 953.6 ± 1.2 kg/m3
17971 kPa	953.5 ± 1.2 kg/m3
17978 kPa	953.5 ± 1.2 kg/m3
17993 kPa	953.6 ± 1.2 kg/m3
18012 kPa	953.5 ± 1.2 kg/m3
18019 kPa	953.6 ± 1.2 kg/m3
18040 kPa	953.4 ± 1.2 kg/m3
18075 kPa	953.5 ± 1.2 kg/m3
18104 kPa	953.5 ± 1.2 kg/m3
18133 kPa	953.6 ± 1.2 kg/m3
18161 kPa	953.6 ± 1.2 kg/m3
18196 kPa	953.5 ± 1.2 kg/m3
18200 kPa	953.7 ± 1.2 kg/m3
18226 kPa	953.7 ± 1.2 kg/m3
18227 kPa	953.7 ± 1.2 kg/m3
18250 kPa	953.7 ± 1.2 kg/m3
18255 kPa	953.7 ± 1.2 kg/m3
18275 kPa	953.8 ± 1.2 kg/m3
18290 kPa	953.7 ± 1.2 kg/m3
18320 kPa	953.8 ± 1.2 kg/m3
18350 kPa	953.7 ± 1.2 kg/m3
18386 kPa	953.8 ± 1.2 kg/m3
